{"source": "patent US8436151B2", "about": "“Indoleamine 2,3-dioxygenase-2 antibodies” (Lankenau Institute for Medical Research, priority 2006, dated 2013)", "key": {"[1]": {"target": "T1, IDO2 (Mus musculus, UniProt Q8R0V5)", "T1 construct": "The complete coding regions of murine IDO1 and IDO2 were cloned in-frame with the V5/His TAG coding region in pcDNA4/TO; expressed in transfected cells; host or cells: T-REx-293 cells (Invitrogen), pcDNA4/TO-muIDO2, doxycycline-induced", "T1 sequence (Q8R0V5 1-405)": "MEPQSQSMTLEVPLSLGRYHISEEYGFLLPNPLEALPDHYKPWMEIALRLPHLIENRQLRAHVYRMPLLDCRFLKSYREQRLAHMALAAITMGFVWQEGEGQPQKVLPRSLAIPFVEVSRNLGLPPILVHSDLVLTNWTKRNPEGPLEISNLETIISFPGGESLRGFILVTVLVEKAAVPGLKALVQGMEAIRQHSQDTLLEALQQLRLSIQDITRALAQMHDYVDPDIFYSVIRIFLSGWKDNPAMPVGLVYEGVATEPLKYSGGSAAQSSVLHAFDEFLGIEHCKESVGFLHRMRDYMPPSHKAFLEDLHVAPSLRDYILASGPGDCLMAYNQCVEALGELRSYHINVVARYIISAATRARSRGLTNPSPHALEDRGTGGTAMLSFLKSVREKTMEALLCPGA", "assay": "Cell-based kynurenine detection assay in IDO2 expressing T-REx cells", "design": "species or system murine", "conditions": "doxycycline-induced T-REx cells, increasing concentrations, 5 days (FIG. 8B)", "procedure": "This assay measures the product of the indoleamine 2,3-dioxygenase conversion of L-tryptophan to N-formyl-kynurenine by acid hydrolysis to kynurenine, which is measured indirectly though the absorbance (480 nm) of imine produced by the reaction of the aromatic amino group of klynurenine with p-dimethylaminobenzaldehyde (Ehrlich's reagent) as described by Takikawa et al. (J. Biol. Chem. (1988) 263:2041-2048). Typically, 200 μL of media from the test sample is combined with 12.5 μL of 30% TCA and incubated at 50° C. for 30 minutes. Evaporation was avoided by sealing the rim of the plate or tubes with parafilm. Samples are clarified by centrifugation for 10 minutes at 3-10K rpm. 100 μL of the supernatant was removed to a fresh well in an assay plate and mixed with 100 μL of fresh Ehrlich's reagent (2% p-dimethylaminobenzaldehyde w/v with glacial acetic acid). The plates were incubated for 10-30 minutes at room temperature and the absorbance was read at 490 nm. Typically, assays were performed in triplicate and the data analyzed using Excel software program (Microsoft). […] Typically, control values were averaged and subtracted from the sample values. The complete coding regions of murine IDO1 and IDO2 were cloned in-frame with the […] TAG coding region in pcDNA4/TO (Invitrogen) which contains a regulatory region that is repressed by the tetracyclin regulated repressor (TetR). The complete coding regions of IDO1 and IDO2 were generated using gene specific primers [IDO2 5'[…] ID NO: 16) and IDO1 5'[…] ID NO: 17)] and 3' primers that were gene specific and removed the termination codon [IDO[…] ID NO: 18) and IDO1 minus stop [NT] ID NO: 19)]. The IDO1 and 2 coding regions where then cloned in-frame with the […] carboxyl terminal Tag in the pcDNA4 TO vector (Invitrogen). IDO2 expressing 293 cells metabolize tryptophan and can be inhibited by 1-methyl-[…]). […] The cells were maintained in growth media plus supplements for 5 days, after which the media was harvested and subjected to analysis for the presence of kynurenine."}, "[2]": {"system": "IDO2 activation of LIP", "assay": "Western blot of LIP (NFIL-6) expression in IDO2 expressing T-REx cells", "assay_type": "cell-based", "conditions": "for inhibition of IDO2 activation of LIP: Western blot (FIG. 9B)", "procedure": "T-REx™ cells (control) and T-REx™ cells expressing IDO1 were either uninduced or induced with doxycycline in the presence or absence of added tryptophan (100 μM). […] T-REx™ cells (control) and T-REx™ cells expressing IDO2 were either uninduced or induced with doxycycline in the presence or absence of added tryptophan. Cells were also optionally treated with the D, L and mixed DL racemic isomers of 1-methyl-tryptophan, (1M-D-T, 1M-L-T and 1M-LD-T, respectively). […] T-REx™ cells expressing IDO2 were either uninduced or induced with doxycycline in the presence or absence of added tryptophan.\nCell lysates were prepared as follows: Cells were removed from the dish by scrapping or pipetting in PBS and collected by centrifugation (2000 rpm/5 minutes). The supernatant was discarded and the cell pellet was lysed in RIPA buffer [50 mM Tris-HCl pH 7.4/150 mM NaCl/1% Triton x-100/1% Sodium deoxycholate/0.1% SDS] plus a protease inhibitor cocktail (Calbiochem Cat #539134). Typically 5×10^5 cells were resuspended in 200 μL of RIPA buffer. Cells lysates were vortexed and incubated on ice or frozen at −20° C. until use. Prior to use lysates were clarified by centrifugation (10,000 rpm/15 minutes) and heat denatured at 95° C. in SDS/sample buffer (100 mM Tris/25% glycerol/2% SDS/0.01% bromophenol blue/25 mM DTT). Proteins were separated by PAGE using NuPAGE® Gels (Invitrogen) and transferred at 100 Volts on to Immobilon-NC Nitrocellulose membranes (Millipore, Billerica, Mass., Cat #HAHY00010) in transfer buffer (25 mM Tris pH 8.3/192 mM glycine/20% methanol). […] For secondary antibody applications, the secondary antibody containing HRP was added in blocking buffer at the appropriate dilution, incubated by shaking at room temperature for 1 hour, and washed 5-6 times in PBS/0.1% Tween. The western membranes were developed by Chemiluminescence using SuperSignal® West Pico substrate (Pierce, Rockford, Ill., Cat #34078), exposed to autography film for an appropriate period of time (3 seconds to 18 hours), and developed."}, "[3]": {"system": "tumor", "conditions": "background statement; listed as L-1MT; cited from earlier work"}, "[4]": {"system": "allogeneic mouse concepti", "conditions": "Mellor et al. 2001; Munn et al. 1998; cited from earlier work"}, "[5]": {"target": "T2, IDO1 (Mus musculus, UniProt P28776)", "T2 construct": "The complete coding regions of murine IDO1 and IDO2 were cloned in-frame with the V5/His TAG coding region in pcDNA4/TO; expressed in transfected cells; host or cells: T-REx-293 cells (Invitrogen), pcDNA4/TO-muIDO1, doxycycline-induced", "T2 sequence (P28776 whole entry)": "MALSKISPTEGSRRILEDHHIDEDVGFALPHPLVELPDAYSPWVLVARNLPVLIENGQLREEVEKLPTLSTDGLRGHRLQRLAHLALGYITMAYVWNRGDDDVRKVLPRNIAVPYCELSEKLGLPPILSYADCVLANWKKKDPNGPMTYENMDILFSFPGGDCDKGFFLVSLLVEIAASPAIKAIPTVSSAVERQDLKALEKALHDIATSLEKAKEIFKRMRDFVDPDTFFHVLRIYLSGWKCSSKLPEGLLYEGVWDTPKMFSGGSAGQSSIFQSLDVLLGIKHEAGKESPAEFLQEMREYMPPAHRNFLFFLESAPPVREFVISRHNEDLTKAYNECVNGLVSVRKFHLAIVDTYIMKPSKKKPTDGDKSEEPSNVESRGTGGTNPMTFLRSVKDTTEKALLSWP", "assay_type": "cell-based, murine", "procedure": "This assay measures the product of the indoleamine 2,3-dioxygenase conversion of L-tryptophan to N-formyl-kynurenine by acid hydrolysis to kynurenine, which is measured indirectly though the absorbance (480 nm) of imine produced by the reaction of the aromatic amino group of klynurenine with p-dimethylaminobenzaldehyde (Ehrlich's reagent) as described by Takikawa et al. (J. Biol. Chem. (1988) 263:2041-2048). Typically, 200 μL of media from the test sample is combined with 12.5 μL of 30% TCA and incubated at 50° C. for 30 minutes. Evaporation was avoided by sealing the rim of the plate or tubes with parafilm. Samples are clarified by centrifugation for 10 minutes at 3-10K rpm. 100 μL of the supernatant was removed to a fresh well in an assay plate and mixed with 100 μL of fresh Ehrlich's reagent (2% p-dimethylaminobenzaldehyde w/v with glacial acetic acid). The plates were incubated for 10-30 minutes at room temperature and the absorbance was read at 490 nm. Typically, assays were performed in triplicate and the data analyzed using Excel software program (Microsoft). Background/control samples were typically derived from media from uninduced cells or cells that lack IDO1/2 expression vectors. Typically, control values were averaged and subtracted from the sample values. […]"}, "[6]": {"system": "purified recIDO2 proteins (rmuIDO2 or rhuIDO2)", "assay": "Enzyme assay of purified recombinant IDO2 (kynurenine formed from L-tryptophan)", "assay_type": "biochemical, murine and human", "conditions": "varying amounts 0-100 μM (FIG. 25)", "procedure": "IDO2 activity was measured as the amount of kynurenine formed from L-tryptophan. The standard assay conditions consisted of a mixture containing 50 mM Pipes pH 6.5, between 50 and 600 nM of rmuIDO2 or rhuIDO2 (where 100 nM of rIDO2 is approximately 5.5 μg protein per mL reaction), 200 U catalase (0.2 mg/mL, sp act. ˜1000 U/mg), 200 μM L-tryptophan, 10 μM methylene blue and 20 mM ascorbic acid. The mixture was incubated at various times ranging from 15 minutes to 4 hours at 37° C. before the reaction was stopped by adding trichloroacetic acid (TCA) to 3% final. The samples were then heated to 50-60° C. for 30 minutes to convert N-formyl-kynureneine to kynurenine, clarified by centrifugation, and supernatants (100 μL) were removed to a new dish, mixed with 100 μL Ehrlich's reagent (2% p-dimethylaminobenzaldehyde w/v in glacial acetic acid), and incubated 10-30 minutes at room temperature. Absorbance at 490 nm was determined on a plate reader and the data collected and analyzed using Excel software (Microsoft). Typically, samples were analyzed in triplicate and control values were typically averaged and subtracted from sample values. Enzyme activity was estimated based on the conversion of tryptophan to kynurenine using linear regression analysis based on an absorbance standard curve derived from assay measurements on known amounts of kynurenine."}}, "note": "Entries after “also recorded” stand apart in the source; their conditions may differ.", "data": [{"smiles": "Cn1cc(C[C@H](N)C(=O)O)c2ccccc21", "note": "[1M-L-T, 1-Methyl-L-Tryptophan]", "values": [{"measurement": "kynurenine production in IDO2 expressing cells", "setting": "[1]", "result": "no changes in kynurenine levels"}, {"measurement": "inhibition of IDO2 activation of LIP", "setting": "[2]", "result": "to a lesser extent"}, {"measurement": "antitumor activity", "setting": "[3]", "result": "exhibits a characteristic pattern of antitumor activities; also recorded: effective at inhibiting IDO1 activity and tumor progression"}]}, {"smiles": "Cn1cc(CC(N)C(=O)O)c2ccccc21", "note": "(racemic) [1M-LD-T, 1-Methyl-DL-Tryptophan]", "values": [{"measurement": "kynurenine production in IDO2 expressing cells", "setting": "[1]", "result": "no changes in kynurenine levels"}, {"measurement": "rejection of allogeneic mouse concepti", "setting": "[4]", "result": "elicit MHC-restricted and T cell-mediated rejection of allogeneic mouse concepti"}]}, {"smiles": "CN1C(=O)C(Cc2c[nH]c3ccccc23)NC1=S", "note": "(centres unmarked) [MTH, 5-(indol-3-methyl)-3-methyl-2-thio-Hydantoin]", "values": [{"measurement": "toxicity of inhibitor to the cells", "setting": "[5]", "result": "not toxic to the cells"}, {"measurement": "kynurenine production in IDO1 expressing cells", "setting": "[5]; doxycycline-induced T-REx cells, increasing concentrations, 5 days (FIG. 8A)", "result": "decrease in kynurenine production in the IDO1 expressing cells was observed in a dose dependent manner"}]}, {"smiles": "Cn1cc(C[C@@H](N)C(=O)O)c2ccccc21", "note": "[1M-D-T, 1-Methyl-D-Tryptophan]", "values": [{"measurement": "kynurenine production in IDO2 expressing cells", "setting": "[1]", "result": "decrease in kynurenine production in the IDO2 expressing cells was observed only with 1M-D-T in a dose dependent manner"}, {"measurement": "inhibition of IDO2 activation of LIP", "setting": "[2]", "result": "inhibited"}, {"measurement": "activation of GCN2 kinase and subsequent altered LIP expression", "setting": "[2]; summary statement", "result": "blocks the activation of GCN2 kinase and subsequent altered LIP expression"}, {"measurement": "inhibition of purified recIDO2 proteins", "setting": "[6]", "result": "inhibited"}]}]}
